Measurements: US20030091533A1, “Regulation of mononuclear phagocyte stimulation” (priority 2001, published 2003)
Values joined by “and” are separate entries in the source; they are usually repeats but may differ in a detail not shown here. Equal entries are not always repeated.

B1: IFN-γ: Interferon gamma, primes mononuclear phagocytes, 200 U/ml (protein, UniProt P01579 24-161, looked up)
Interferon gamma: QDPYVKEAENLKKYFNAGHSDVADNGTLFLGILKNWKEESDRKIMQSQIVSFYFKLFKNFKDDQSIQKSVETIKEDMNVKFFNSNKKKRDDFEKLTNYSVTDLNVQRKAIHELIQVMAELSPAAKTGKRKRSQMLFRG

Key:
Type in all cases: cell-based, human
LPS-stimulated AM [1] = assay: Intracellular oxidative burst, DCFH oxidation assay, AM; conditions: for oxidative burst in LPS-stimulated AM with IFN-γ: preincubated 24 hour with cytokine 20 ng/ml in the presence of IFN-γ 200 U/ml, LPS 1 μg/ml 20 hour; for LPS-stimulated oxidative burst in AM: preincubation 24 hour with cytokine 20 ng/ml, then LPS 1 μg/ml 20 hour, without IFN-γ
Protocol: Intracellular oxidative capacity was assessed essentially as described by Bass et al., J. Immunol., 130:1910-1917 (1983) (incorporated herein by reference) as described infra.
Cells (0.2×10^6) were preincubated for 24 hour with IL-9 or IL-4 (20 ng/ml) in the presence of IFN-γ (200 U/ml) before stimulation for 20 hour with LPS (1 μg/ml). The intracellular oxidative capacity was measured through the DCFH oxidation assay as describe herein. FIG. 3 depicts the effect of IFN-γ on the inhibition mediated by IL-9 and IL-4 on the oxidative burst in LPS-stimulated PBM (A) and AM (B).
Table 1. Specific blockade of the IL-9 inhibitory effect on oxidative burst in LPS-15 stimulated PBM and AM by anti-hIL-9R mAb. Cells (0.2×10^6) were preincubated with neutralizing mAb against hIL-9R (AH9R7, 10 μg/ml), or with control mIgG2b (10 μg/ml), 1 hour before incubation with IL-9 (20 ng/ml) for 24 hour without removing mAb, and stimulated by LPS (1 μg/ml) for 20 h. Intracellular oxidative capacity was evaluated by the DCFH oxidation assay. Data are means±SEM obtained from three experiments, triplicate conditions being performed in each experiment. *P<0.001 compared with cells preincubated with IL-9 (with or without control mIgG2b).
Intracellular oxidative capacity was assessed as described by Bass et al., (Bass et al., J. Immunol. 130:1910-1917 (1983)). Briefly, the PBM and AM samples were distributed in 96-well plates with flat bottoms (Falcon) to provide 0.2×10^6cells/well. The cells were preincubated for 24 hour at 37° C., 5% CO2 with cytokines (200 u/ml for IFN-y, 20 ng/ml for IL-9 and 20 ng/ml; for IL-4) in cRPMI before being stimulated for 20 hours with LPS (1 μg/ml) without removing the cytokines. At the end of incubation with cytokines and/or LPS, cells were loaded for 15 min with 15 μM DCFH-DA in cRPMI which, after passive penetration into cells, is hydrolyzed into nonfluorescent polar DCFH and trapped inside the cells. DCFH is then oxidized into highly fluorescent DCF according to the intracellular amount of hydrogen peroxide (H2O2) produced by the respiratory burst. After three washings with phosphate-buffered saline (PBS, pH 7.4), cells were lysed in 0.1% v/v Triton X100 (Sigma) in PBS, and fluorescence was quantified in a computerized microplate spectrofluorimeter (Packard Instruments, Downers Grove, Ill., USA) at 485 nm excitation/530 nm emission wavelengths. DCF concentrations were deduced from a standard curve of known concentrations of fluorescent DCF (ranging from 0.08 to 10 μM in lysis buffer) Results were corrected for total protein concentration determined in cell lysates by the bicinchoninic acid-based method (Pierce, Rockford, Ill., USA), and were expressed as nmoles DCF/mg cell protein.

LPS-stimulated AM [2] = assay: TNF-α release, cytotoxic bioassay with WEHI 164 clone 13 cells, AM; conditions: for TNF-α release by LPS-stimulated AM: preincubated 24 hour with cytokine (IL-9, IL-4 20 ng/ml, IFN-γ 200 U/ml) or medium, LPS 1 μg/ml 20 h, without LPS 4.6±2.1
Protocol: (§1) PBM and AM obtained as described infra (1×10^6 PBM, 0.5×10^6 AM) were preincubated for 24 hour with cytokines, IL-4, IL-9 (20 ng/ml) and IFN-γ (200 U/ml) before the stimulation by LPS (1 μg/ml) for 20 h. Supernatants were harvested and frozen at −20° C. until cytokine titration. TNF-α release was determined in supernatants by a cytotoxic bioassay using WEHI 164 clone 13 target cells (Espevik and Nissen-Meyer, J. Immunol. Methods, 95:99-105 (1986) (incorporated herein by reference)), while IL-8 was quantitated in the same supernatants by ELISA. FIG. 5 depicts the effects of IL-9, IL-4, and IFN-γ on the release of TNFα (A) and IL-8 (B) by LPS-stimulated PBM and AM. Data are means±SEM (n=3). *P<0.001 compared with unstimulated cells; **P<0.05 compared with cells preincubated with medium.
Cells (1×10^6 PBM or 0.5×10^6 AM/well) were distributed in 24-well plates (Falcon), preincubated in cRPMI for 24 hours at 37° C., 5% CO2 with cytokines (IL-9, IL-4 (20 ng/ml) and IFN-γ (200 U/ml)) and stimulated for 20 hours with 1 μg/ml LPS without removing cytokines. Supernatants were harvested and frozen at −20° C. until cytokine titration. Release of TNF-α was quantified by a cytotoxicity bioassay using WEHI 164 cells clone 13, as previously described (Espevik and Nissen-Meyer, J. Immunol. Methods, 95:99-105 (1986) incorporated herein by reference), using rhTNF-α from Boehringer as a standard. IL-8, IL-10 and TGF-β1 concentrations were determined by ELISA. A kit from CLB (Amsterdam, The Netherlands) was used for IL-10 quantitation, following the manufacturer's protocol. A kit from Biosource allowed to determine TGF-β1 after the release from its latent complexes by a treatment of supernatants with ethanol acid (‘acid-treated supernatants’); TGF-P 1 was also assessed in crude supernatants (‘untreated supernatants’). […] The reaction was then developed in 0.03% v/v H2O2 substrate and 0.42 mM 3,3′,5,5′-tetramethylbenzidine as chromogen in 100 mM sodium acetate/citric acid buffer (pH 4.9), stopped with 2 M H2SO4, and read in a plate spectrometer at 450 nm. […]

LPS-stimulated AM [3] = assay: IL-8 release by ELISA, AM; conditions: preincubated 24 hour, LPS 20 hour
Protocol: as §1, with “Data are means±SEM (n=3). *P<0.001 compared with unstimulated cells; **P<0.05 compared with cells preincubated with medium.” left out
Cells (1×10^6 PBM or 0.5×10^6 AM/well) were distributed in 24-well plates (Falcon), preincubated in cRPMI for 24 hours at 37° C., 5% CO2 with cytokines (IL-9, IL-4 (20 ng/ml) and IFN-γ (200 U/ml)) and stimulated for 20 hours with 1 μg/ml LPS without removing cytokines. […] Release of TNF-α was quantified by a cytotoxicity bioassay using WEHI 164 cells clone 13, as previously described (Espevik and Nissen-Meyer, J. Immunol. Methods, 95:99-105 (1986) incorporated herein by reference), using rhTNF-α from Boehringer as a standard. IL-8, IL-10 and TGF-β1 concentrations were determined by ELISA. A kit from CLB (Amsterdam, The Netherlands) was used for IL-10 quantitation, following the manufacturer's protocol. […]

Row | Molecule | oxidative burst in LPS-stimulated AM with IFN-γ (LPS-stimulated AM [1]) | LPS-stimulated oxidative burst in AM (LPS-stimulated AM [1]) | effect on TNF-α production in LPS-stimulated AM (LPS-stimulated AM [2]; preincubated 24 hour, LPS 20 h) | effect on IL-8 release by LPS-stimulated AM (LPS-stimulated AM [3]) | Oxidative burst (nmoles DCF/mg protein) (LPS-stimulated AM [1]; Table 1, AM, mAb 10 μg/ml 1 hour before IL-9 20 ng/ml 24 hour, LPS 1 μg/ml 20 h, means±SEM, medium 5.8 ± 0.6) | TNF-α release by LPS-stimulated AM (LPS-stimulated AM [2]) | effect on LPS-stimulated oxidative burst in AM (LPS-stimulated AM [1]; preincubation 24 hour, LPS 20 hour)
1 | IL-4: Th2 cytokine interleukin-4 used as comparator, 20 ng/ml | 13.8±1.3 nmoles DCF/mg protein | 6.1±0.4 nmoles DCF/mg protein | No significant inhibition | – | – | – | –
2 | IL-9: Human IL-9 purified from SF9 insect cell cultures infected with recombinant baculovirus | 6.6±1.2 nmoles DCF/mg protein | 6.5±0.5 nmoles DCF/mg protein and 6.5±0.6 nmoles DCF/mg protein | – | no significant modulation | 6.5 ± 0.5 nmoles DCF/mg protein | 74.8 ± 10.2 pg/mL | –
3 | B1 | – | – | – | no significant modulation | – | 145.2 ± 9.4 pg/mL | slightly increased
